# In US20260248769A1, “URINATION DISORDER-A[…]” (priority 2023, published 2026):
# Legend:
# [1] = system: partial BOO rats exhibiting overactive bladder; experiment: Cystometry in partial bladder outlet obstruction (BOO) rats: voiding interval and frequency of NVC; type: in vivo, rat; conditions: for NVC frequency compared with the β3 agonist single administration group: co-administered with mirabegron 3 mg/kg i.v., distigmine 0.1 mg/kg or acotiamide 200 mg/kg s.c. (FIG. 15); for voiding interval, effect of a single agent: up to 2 hours, distigmine 0.1 mg/kg s.c., acotiamide 100 and 200 mg/kg s.c., mirabegron 3 mg/kg i.v. (FIG. 14)
# Experimental: Under isoflurane anesthesia, female rats (strain: Crl:CD (SD), 6 weeks old, Jackson Laboratory Japan, Inc.) were subjected to bladder outlet obstruction surgery to prepare partial bladder outlet obstruction (BOO) rats. The sham-operated group was operated similarly except for the partial BOO. Six weeks after surgery, cystometry was performed while awake. A polyethylene catheter (Becton Dickinson: PE50) for cystometry was inserted into and indwellingly placed in the bladder. The catheter indwelling in the bladder was connected to a pressure transducer (Nihon Kohden Corporation) to measure the intravesical pressure. Physiological saline was injected into the bladder using a syringe pump and changes in intravesical pressure were recorded in PowerLab (ADInstruments).
# Distigmine (0.1 mg/kg), acotiamide (100 and 200 mg/kg) or vehicle was subcutaneously administered (5 ml/kg), or a β3-adrenergic receptor agonist (β3 agonist mirabegron, a therapeutic agent for overactive bladder) (3 mg/kg) was intravenously administered (1 mL/kg), and the voiding interval was measured for up to 2 hours.
# The β3 agonist mirabegron (3 mg/kg, intravenous administration [1 mL/kg]) was co-administered with distigmine (0.1 mg/kg) or acotiamide (200 mg/kg) by subcutaneous administration (5 mL/kg), and the frequency of NVC was measured.
# [2] = system: pelvic nerve crush (PNC) rats; experiment: Cystometry in underactive bladder model (pelvic nerve crush, PNC) rats; type: in vivo, rat; conditions: PNC female rats, subcutaneous; for detrusor muscle contraction pressure: awake, measured for 60 minutes, acotiamide 30 to 200 mg/kg, distigmine 0.1 mg/kg (FIG. 12); for drug tolerability at the highest dose: highest dose acotiamide 200 mg/kg, distigmine 0.3 mg/kg
# Experimental: Under isoflurane anesthesia, female rats (strain: Crl:CD (SD), 8 weeks old, Jackson Laboratory Japan, Inc.) were subjected to pelvic nerve injury surgery to prepare pelvic nerve crush (PNC) rats. Cystometry was performed while awake, 2 to 4 weeks after surgery. A polyethylene catheter (PE50) for cystometry was inserted into the bladder and indwellingly placed. The catheter indwelling in the bladder was connected to a pressure transducer (Nihon Kohden Corporation) to measure the intravesical pressure. Physiological saline was injected into the bladder using an infusion pump, and changes in intravesical pressure were recorded in a polygraph system (RMT-1000, Nihon Kohden Corporation) (RMT-1000 MG, Miyuki Giken Co., Ltd.) and an analysis system (Lab Chart Pro, ADInstruments).
# Changes in detrusor muscle contraction pressure when distigmine (0.01 to 0.3 mg/kg), acotiamide (3 to 200 mg/kg), or vehicle was subcutaneously administered (5 mL/kg) to PNC rats were measured for 60 minutes.
# normal rats = experiment: Uroflowmetry (urine flow rate measurement) in normal rats; type: in vivo, rat; conditions: normal male rats, subcutaneous, measured for 12 hours; acotiamide 30, 100, 200 mg/kg, distigmine 0.1 mg/kg (FIG. 5)
# Experimental: Changes in urine flow rate when distigmine (0.1 mg/kg), acotiamide (30, 100, and 200 mg/kg) or vehicle was subcutaneously administered (5 mL/kg) to male rats (strain: Crl:CD (SD), 8 weeks old, Jackson Laboratory Japan, Inc.) were measured for 12 hours. Changes in urine flow rate were recorded using PowerLab (ADInstruments) by placing a digital balance under the voiding measurement cage to cumulatively collect excreted urine in a container on the balance and measure the change in weight.
# [3] = system: female rats under urethane anesthesia; experiment: Test for confirming tolerability: induction of cholinergic crisis; type: in vivo, rat; conditions: up to 120 minutes; for induction of cholinergic crisis (hypersecretion, respiratory abnormalities): urethane anesthesia, subcutaneous, distigmine 0.1-0.4 mg/kg, acotiamide 200 and 300 mg/kg
# [4] = system: bladder of normal guinea pigs; experiment: Cystometry and urine flow rate measurement in normal guinea pigs; type: in vivo, guinea pig; conditions: male guinea pigs, intravenous, 0 to 30 minutes, acotiamide 0.1 to 10 mg/kg; for bladder contraction pressure during voiding: distigmine 1 mg/kg (FIG. 8); for maximum contraction pressure during voiding: distigmine 1 mg/kg (FIG. 9); for urine flow rate (maximum urine flow rate and average urine flow rate): distigmine 1 mg/kg (FIG. 10, FIG. 11)
# Experimental: A polyethylene catheter (Becton Dickinson: PE50) was inserted into and fixed to the bladder of a guinea pig (male, strain: Slc: Hartley, 7 weeks old, Japan SLC, Inc.). A catheter indwellingly placed in the bladder was connected to a pressure transducer to measure intravesical pressure. Physiological saline was injected into the bladder using an infusion pump and intravesical pressure was recorded in PowerLab (ADInstruments). The urine flow rate was recorded in PowerLab (ADInstruments) by placing a digital balance under the cage to cumulatively collect excreted urine in a container on the balance and measure the change in weight. Changes in the detrusor muscle contraction pressure and the urine flow rate when distigmine (1 mg/kg), acotiamide (0.1 to 10 mg/kg), or a vehicle was intravenously administered (1 mL/kg) were measured for 30 minutes.
# [5] = system: bladder M3 receptor (Chrm3); experiment: Bladder M3 receptor expression (real-time PCR Chrm3, Western blotting CHRM3) after repeated administration; type: in vivo, rat; conditions: subcutaneous twice daily for two weeks; for Relative gene expression of Chrm3 (Mean ± SE): bladder of normal male rats, real-time PCR, acotiamide 200 mg/kg/day, distigmine 0.2 mg/kg/day; for expression level of the bladder M3 receptor after repeated administration: normal male rats, acotiamide 100 mg/kg, distigmine 0.1 mg/kg per dose (Table 1, FIG. 13)
# Experimental: Distigmine (0.1 mg/kg), acotiamide (100 mg/kg), or vehicle was subcutaneously administered twice daily for two weeks (5 mL/kg per dose) to normal rats (male, strain: Crl:CD (SD), 8 weeks old, Jackson Laboratory Japan, Inc.), and the bladder was collected. The M3 receptor expression level in the collected bladder was examined by gene quantitative analysis by real-time PCR (Chrm3) and protein expression analysis by Western blotting (CHRM3).
# urethra of normal rats = experiment: Measurement of LPP (urethral pressure) in normal rats; type: in vivo, rat; conditions: spinal cord transected female rats, subcutaneous; acotiamide 30 to 300 mg/kg, distigmine 0.1 mg/kg, bethanechol 3 mg/kg (FIG. 7)
# Experimental: Using female rats (strain: Crl:CD (SD), 9 weeks old, Jackson Laboratory Japan, Inc.), under isoflurane anesthesia, the spinal cord was transected at the Th8 vertebra, and after ligating and excising the ureters, a catheter (Becton Dickinson: PE-90, PE-50) was inserted and fixed at the bladder dome to prepare the measurement animal. Physiological saline was injected from the catheter, and the maximum intravesical pressure (leak point pressure (LPP)) when leaking from the external urethral opening was recorded by PowerLab (ADInstruments). Changes in leak point pressure when distigmine (0.1 mg/kg), bethanechol (3 mg/kg), acotiamide (30 to 300 mg/kg), or a vehicle was subcutaneously administered (5 mL/kg) were measured.
# bladder of normal rats = experiment: Cystometry (detrusor muscle contraction pressure measurement) in normal rats; type: in vivo; conditions: normal male rats, subcutaneous; for bladder contraction pressure during voiding / maximum contraction pressure during voiding: 0 to 90 minutes after administration, acotiamide 30 to 200 mg/kg; for bladder contraction pressure during voiding: distigmine 0.01 to 0.1 mg/kg (FIG. 3); for maximum contraction pressure during voiding: distigmine 0.01 to 0.1 mg/kg (FIG. 4); for bladder compliance: 0 to 90 minutes, acotiamide up to 200 mg/kg, distigmine 0.01 to 0.1 mg/kg (FIG. 6); for tolerability in the cystometry test at the highest dose: highest dose acotiamide 200 mg/kg, distigmine 0.3 mg/kg
# Experimental: A polyethylene catheter (PE50) for cystometry was inserted into and indwellingly placed in the bladder of male rats (strain: Crl:CD (SD), 8 weeks old, Jackson Laboratory Japan, Inc.). The catheter indwelling in the bladder was connected to a pressure transducer (Nihon Kohden Corporation) to measure the intravesical pressure. Physiological saline was injected into the bladder using an infusion pump, and changes in intravesical pressure were recorded on a polygraph system (RMT-1000, Nihon Kohden Corporation) and an analysis system (Lab Chart Pro, ADInstruments). Changes in detrusor muscle contraction pressure when distigmine (0.01 to 0.3 mg/kg), acotiamide (3 to 200 mg/kg), or vehicle was subcutaneously administered (5 ml/kg) were measured for 90 minutes.
# [6] = system: patients with underactive bladder; conditions: in combination with an α1-receptor blocker, cited from earlier work
SMILES,NVC frequency compared with the β3 agonist single administration group [1],"voiding interval, effect of a single agent [1]",detrusor muscle contraction pressure [2],drug tolerability at the highest dose [2],urine flow rate (normal rats),"induction of cholinergic crisis (hypersecretion, respiratory abnormalities) [3]",bladder contraction pressure during voiding [4],maximum contraction pressure during voiding [4],urine flow rate (maximum urine flow rate and average urine flow rate) [4],Relative gene expression of Chrm3 (Mean ± SE) [5],expression level of the bladder M3 receptor after repeated administration [5],leak point pressure (urethral pressure) (urethra of normal rats),bladder contraction pressure during voiding (bladder of normal rats),maximum contraction pressure during voiding (bladder of normal rats),bladder compliance (bladder of normal rats),tolerability in the cystometry test at the highest dose (bladder of normal rats),also measured
CN(CCCCCCN(C)C(=O)Oc1ccc[n+](C)c1)C(=O)Oc1ccc[n+](C)c1 [Distigmine],increased,significantly shortened,increased,cholinergic crisis,decreased,induced,increased,increased,decreased,79.1 ± 11.8,reduced,did not change,increased,increased,significantly reduced,induced cholinergic crisis,death (animals) ([3]; 0.2 mg/kg subcutaneous): 1 out of 3; death (animals) ([3]; 0.3 mg/kg subcutaneous): 5 out of 6; death (animals) ([3]; 0.4 mg/kg subcutaneous): 3 out of 3
Nc1nc(CC(=O)Nc2ccc(CCNC[C@H](O)c3ccccc3)cc2)cs1 [mirabegron],,had no effect,,,,,,,,,,,,,,,
CC(C[N+](C)(C)C)OC(N)=O (stereo not drawn) [bethanechol],,,,,,,,,,,,increase,,,,,
"COc1cc(O)c(C(=O)Nc2nc(C(=O)NCCN(C(C)C)C(C)C)cs2)cc1OC [Acotiamide, N-[2-[bis(1-methylethyl)amino]ethyl]-2-[(2-hydroxy-4,5-dimethoxybenzoyl)amino]thiazole-4-carboxamide]",similar,had no effect,increased,good tolerability,increasing,did not induce,increased,increased,increasing,107.0 ± 12.9,did not reduce,did not change,increased,increased,did not affect,well tolerated,"action on the detrusor muscle contraction pressure, 200 mg/kg group compared with 30 and 100 mg/kg groups ([2]; 200 mg/kg): extremely strong; death cases ([3]; 200 and 300 mg/kg subcutaneous): no death cases; decrease in residual urine volume ([6]; 100 mg orally 3 times a day for 2 weeks): a sufficient decrease in residual urine volume was not obtained; mean value of residual urine volume after administration ([6]; 100 mg orally three times a day for two weeks): ≥ 100 mL; action on bladder contraction pressure, 200 mg/kg group compared with 30 and 100 mg/kg groups (bladder of normal rats; 200 mg/kg): extremely strong"
